Reference: patent EP2650284A1, “Heterocyclic derivatives as metabotropic glutamate receptor modulators” (Merz Pharma GmbH & Co. KGaA, priority 2012, dated 2013)
pKi: −log10 of the molar value.

Target: T1, mGluR5 binding site (Rattus norvegicus, UniProt P31424)
T1 construct: from tissue; host or cells: cortex of adult male Sprague-Dawley rats, membrane preparation
Assay: [3H]-M-MPEP displacement studies on rat cortical membranes
Settings: Table A3, [3H]-M-MPEP 2 nM, 4°C for 1 h, median, read-out: Ki (MMPEP)
Experimental: Tissue preparation is performed according to Foster & Wong (Br. J. Pharmacol., 1987, 91, 403-409) with some modifications. Anaesthetised male Sprague-Dawley rats (200-250 g, Janvier, Le Genest-Isle, France) are decapitated and their brains are removed rapidly. The cortex is dissected out and processed as described by Parsons, et al. (J. Pharmacol. Exp. Ther., 1997, 283(3): 1264-1275). For isolation of the cell membranes, the cortices are homogenized in 20 volumes of ice-cold 0.32 M sucrose (Sigma-Aldrich, Taufkirchen, Germany) using a glass-Teflon homogenizer. The homogenate is centrifuged at 1000 x g for 10 minutes, the pellet is discarded and the supernatant centrifuged at 20,000 x g for 20 minutes. The resulting pellet is resuspended in 20 volumes of distilled water and centrifuged for 20 minutes at 8000 x g. The supernatant and the buffy coat are then centrifuged six times (48,000 x g for 20 minutes) in the presence of 5 mM Tris-HCl, pH 7.5. All centrifugation steps are carried out at 4°C. After resuspension in 5 volumes of 5 mM Tris-HCl, pH 7.5, the membrane suspension is frozen rapidly at -80°C.
On the day of assay, the membrane suspensions are thawed, centrifuged (48,000 x g for 20 minutes) and then resuspended in 50 mM Tris-HCl, pH 7.5 (assay buffer). The amount of protein in the final membrane preparation is determined according to the method of Lowry, et al. (J. Biol. Chem., 1951, 193, 256-275). The final concentration used for our studies is 400 µg / ml.
The Tecan robotic system designed for binding assays is loaded with the membrane solution, a 96 well stock plate containing the solutions for bound control (buffer/DMSO 10%), unlabeled MPEP (10 µM) for evaluation of non-specific binding, all compounds to be tested (at 20-fold concentrations), various empty 96-well plates for dilutions and the final assay plates, as well as a 96-well plate filled with the radioligand.
Before performing displacement studies, saturation experiments are performed to determine the equilibrium dissociation constant (Kd, Cheng and Prussoff, Biochem. Pharmacol., 1973, 22: 3099-3108) of [^3H]-M-MPEP, which is a parameter for the affinity of the radioligand to the binding site. On the basis of the saturation experiments, a final [^3H]-M-MPEP concentration of 2 nM was selected.
Firstly, the assay plates are loaded with membrane solution and are shaken at 4°C. The mother plates were then prepared by pipetting the compounds (n = 5) into assay buffer/10% DMSO to obtain the desired final concentrations. After transferring radioligand into the assay plates, the compounds are added (including the non-specific binding control containing MPEP). The final DMSO concentration is always 1 %. The assay plates are incubated and shaken at 4°C for 1 h, before the mixture is exhausted as rapidly as possible via a vacuum manifold using the Multiscreen HTS glass fibre (type B) high flow filter plates (Millipore, Schwalbach, Germany) under a constant vacuum of 450 mbar. The membranes are washed four times with cold assay buffer (100 µL). 50 µL of Ultima Gold scintillation cocktail (PerkinElmer) is added to the wet filter plates and incubated at rt overnight before counting the disintegration per minutes using a liquid scintillation counter (MicroBeta, PerkinElmer).
For the evaluation of the test compound binding affinity to the mGluR5 binding site and its potency to displace [^3H]-M-MPEP, the measured radioactivity of the radioligand alone was set as 100% bound control and the non-specific binding of the radioligand represented the 0% control. The residual radioactivity after displacement of the test compound was then corrected with respect to the set controls. Data are given as median IC50 and Ki, respectively.

T1 sequence (P31424 21-1203): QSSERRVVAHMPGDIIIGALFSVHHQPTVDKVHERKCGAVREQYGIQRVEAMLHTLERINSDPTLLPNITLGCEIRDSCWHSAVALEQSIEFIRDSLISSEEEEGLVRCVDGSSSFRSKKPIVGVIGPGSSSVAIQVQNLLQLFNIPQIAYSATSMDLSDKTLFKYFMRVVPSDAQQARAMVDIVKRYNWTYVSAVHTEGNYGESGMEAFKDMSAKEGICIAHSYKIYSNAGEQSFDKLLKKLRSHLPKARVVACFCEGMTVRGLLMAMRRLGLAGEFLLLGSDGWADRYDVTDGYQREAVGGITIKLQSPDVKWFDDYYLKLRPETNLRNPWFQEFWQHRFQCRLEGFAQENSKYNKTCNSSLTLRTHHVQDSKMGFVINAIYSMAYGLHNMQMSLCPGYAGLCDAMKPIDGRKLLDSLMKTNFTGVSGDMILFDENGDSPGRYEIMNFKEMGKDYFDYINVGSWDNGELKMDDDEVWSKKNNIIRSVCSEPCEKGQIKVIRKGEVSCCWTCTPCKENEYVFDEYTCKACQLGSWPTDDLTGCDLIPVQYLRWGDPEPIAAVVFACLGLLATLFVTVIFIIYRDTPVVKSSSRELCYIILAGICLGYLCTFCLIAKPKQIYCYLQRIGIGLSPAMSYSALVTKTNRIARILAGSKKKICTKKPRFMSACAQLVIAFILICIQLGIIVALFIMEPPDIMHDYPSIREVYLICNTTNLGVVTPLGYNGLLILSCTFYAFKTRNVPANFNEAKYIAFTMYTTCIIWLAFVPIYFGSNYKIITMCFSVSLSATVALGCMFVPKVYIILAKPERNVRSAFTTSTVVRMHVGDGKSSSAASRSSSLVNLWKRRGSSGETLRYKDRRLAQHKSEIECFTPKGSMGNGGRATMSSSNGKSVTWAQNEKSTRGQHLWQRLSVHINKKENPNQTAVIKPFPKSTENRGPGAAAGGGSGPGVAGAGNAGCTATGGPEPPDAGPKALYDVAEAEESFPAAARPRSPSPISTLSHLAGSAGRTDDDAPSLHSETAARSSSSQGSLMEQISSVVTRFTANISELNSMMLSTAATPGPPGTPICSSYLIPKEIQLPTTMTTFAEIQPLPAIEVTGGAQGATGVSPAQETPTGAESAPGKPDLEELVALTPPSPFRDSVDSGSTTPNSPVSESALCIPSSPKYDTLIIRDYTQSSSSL

SMILES: CCCN1CCO[C@@H]2c3cc(C#Cc4cccc(C)c4)cnc3CC[C@@H]21 (racemic) [Example 21, (rac)-cis-4-Propyl-9-(m-tolylethynyl)-3,4,4a,5,6,10b-hexahydro-2H-[1,4]oxazino[2,3-f]quinoline]
- pKi: 5.76

SMILES: COC(=O)N1CC[C@H]2CCc3ncc(C#Cc4ccccc4)cc3[C@H]21 (racemic) [Example 29, (rac)-cis-Methyl 8-(phenylethynyl)-2,3,3a,4,5,9b-hexahydro-1H-pyrrolo[2,3-f]quinoline-1-carboxylate]
- pKi: 6.54

SMILES: CCCN1CC2(CCCc3ncc(C#Cc4cccc(C)c4)cc32)OC1=O (racemic) [Example 64, (rac)-3-Propyl-3'-(m-tolylethynyl)-7',8'-dihydro-6'H-spiro[oxazolidine-5,5'-quinolin]-2-one]
- pKi: 6.40

SMILES: CCCN1CC2(CCCc3ncc(C#Cc4cccc(F)c4)cc32)OC1=O (racemic) [Example 66, (rac)-3'-((3-Fluorophenyl)ethynyl)-3-propyl-7',8'-dihydro-6'H-spiro[oxazolidine-5,5'-quinolin]-2-one]
- pKi: 6.07

SMILES: COC1CCCc2ncc(C#Cc3ccccc3)cc21 (single isomer, unassigned) [Example 2, 5-Methoxy-3-(phenylethynyl)-5,6,7,8-tetrahydroquinoline]
- pKi: 6.69

SMILES: CCCN1CCO[C@@H]2c3cc(C#Cc4ccccc4)cnc3CC[C@@H]21 (single isomer, unassigned) [Example 17, cis-9-(Phenylethynyl)-4-propyl-3,4,4a,5,6,10b-hexahydro-2H-[1,4]oxazino[2,3-f]quinoline]
- pKi: 5.44

SMILES: CC(C)C(=O)N1CCc2ncc(C#Cc3ccccc3)cc2C1 [Example 33, 2-Methyl-1-(3-(phenylethynyl)-7,8-dihydro-1,6-naphthyridin-6(5H)-yl)propan-1-one]
- pKi: 6.40

SMILES: CCOC(=O)N1CCc2ncc(C#Cc3ccccc3)cc2C1 [Example 40, Ethyl 3-(phenylethynyl)-7,8-dihydro-1,6-naphthyridine-6(5H)-carboxylate]
- pKi: 7.25
